As a reminder, the pIC50 is the IC50 on a negative log10 scale, so that one unit is a factor of ten.

pIC50: −log10 of the molar value. Positions of bridges follow the written chain, without caps; N, C: chain ends. Residues, ends and D or L forms follow the SMILES beside them.

For three molecules, IC50 results are on record in ChEMBL document CHEMBL4002558, “Characterization of a Bioactive Acyclotide from Palicourea rigida” (J Nat Prod, 2016).

In the assay the test system is MCF7. Kind of assay: Cytotoxicity against human MCF7 cells assessed as decrease in cell viability at 10 uM after 72 hrs by MTT assay. The conditions noted are these: MCF7, 72 h. It is filed as functional, cell-based. (In general: Tetrazolium dyes change colour on reduction, which living cells bring about.)

With `CC[C@H](C)[C@@H]1NC(=O)[C@@H]2CSSC[C@@H](C(=O)N[C@@H](Cc3ccc(O)cc3)C(=O)N[C@@H](CCCNC(=N)N)C(=O)N[C@@H](CC(=O)O)C(=O)O)NC(=O)[C@H](C(C)C)NC(=O)[C@H](CCCCN)NC(=O)[C@H](CC(N)=O)NC(=O)[C@H](CCCCN)NC(=O)[C@H]3CSSC[C@H](NC(=O)[C@H](CO)NC(=O)[C@H](CCC(=O)O)NC(=O)CNC(=O)[C@@H](NC(=O)[C@@H]4CCCN4C(=O)[C@@H](NC(=O)[C@@H](NC(=O)CN)C(C)C)[C@@H](C)CC)CSSC[C@@H](NC(=O)CNC(=O)[C@H](CC(C)C)NC(=O)[C@H](C(C)C)NC(=O)[C@H](CO)NC(=O)[C@H](CO)NC1=O)C(=O)N[C@@H](CO)C(=O)N3)C(=O)N[C@@H](C(C)C)C(=O)N[C@@H](Cc1ccccc1)C(=O)N[C@@H]([C@@H](C)CC)C(=O)N1CCC[C@H]1C(=O)N2`, the pIC50 was 6.19.
Under `CC[C@H](C)[C@H](NC(=O)CN)C(=O)N[C@@H](C)C(=O)N[C@H]1CSSC[C@H]2NC(=O)CNC(=O)[C@@H]3CCCN3C(=O)[C@H]([C@@H](C)CC)NC(=O)[C@H](Cc3ccccc3)NC(=O)[C@@H]3CSSC[C@@H](C(=O)N[C@@H](Cc4ccc(O)cc4)C(=O)N[C@@H](Cc4ccccc4)C(=O)N[C@@H](CC(N)=O)C(=O)O)NC(=O)[C@H](C(C)C)NC(=O)[C@H](CCCCN)NC(=O)[C@H](CO)NC(=O)[C@H](CCCCN)NC(=O)[C@H](CSSC[C@H](NC(=O)[C@H](CO)NC(=O)[C@H](CCC(=O)O)NC(=O)CNC1=O)C(=O)N[C@@H](C(C)C)C(=O)N[C@@H](Cc1ccccc1)C(=O)N[C@@H](CC(C)C)C(=O)NCC(=O)N3)NC(=O)[C@H](CO)N2` stands 5.11; under `CC(C)C[C@H](NC(=O)[C@@H](N)CCCCN)C(=O)N[C@H]1CSSC[C@@H]2NC(=O)[C@H](CO)NC(=O)[C@H](CS)NC(=O)CNC(=O)[C@@H]3CCCN3C(=O)[C@H]([C@@H](C)O)NC(=O)[C@H](Cc3ccc(O)cc3)NC(=O)[C@@H]3CSSC[C@@H](C(=O)N[C@@H](CCCCN)C(=O)O)NC(=O)[C@H](Cc4ccccc4)NC(=O)[C@@H]4CCCN4C(=O)[C@H](Cc4ccc(O)cc4)NC(=O)[C@H](CO)NC(=O)[C@H](CSSC[C@H](NC(=O)[C@H]([C@@H](C)O)NC(=O)[C@H](CCC(=O)O)NC(=O)CNC1=O)C(=O)N[C@@H](Cc1ccccc1)C(=O)N[C@@H](CCCCN)C(=O)N[C@@H](Cc1ccccc1)C(=O)N[C@@H](CCCCN)C(=O)N3)NC(=O)[C@H](CO)NC2=O` (H-KLCGETCFKFKCYTPGCSCSCSYPFCK-OH; disulfide 3-19, 7-21, 12-26), 5.53.
